The record followed here is ChEMBL document CHEMBL4330131, “The identification of novel small-molecule inhibitors targeting WDR5-MLL1 interaction through fluorescence polarization based high-throughput screening” (Bioorg Med Chem Lett, 2019).

For test [1], the target named is T1, WD repeat-containing protein 5 (Homo sapiens, UniProt P61964). Briefly: Displacement of Ac-ARTEVHLRKS-(Ahx)-(Ahx)-K(5-FAM)-NH2 from recombinant full-length human N-terminal His6-tagged WDR5 (1 to 334 residues) expressed in Escherichia coli BL21 (DE3) after 2 hrs by fluorescence polarization assay. (In general: Polarisation of emitted light reports the rotation of a fluorescent probe.)

The target of test [2] is T1, WD repeat-containing protein 5. Briefly: Displacement of fluorescence-labelled Ac-ARA peptide from WDR5 (unknown origin) by fluorescence polarization assay.
For test [3] the target is unchanged. Briefly: Displacement of 5-FAM labelled tracer from WDR5 (unknown origin) by fluorescence polarization assay.
Test [4] has as its target Protein arginine N-methyltransferase 1 (Homo sapiens, UniProt Q99873). Briefly: Inhibition of PRMT1 (unknown origin) using SAM as substrate preincubated for 15 mins followed by substrate addition and measured after 1 hr by Alphalisa assay. (Alpha assays give light when donor and acceptor beads are brought close together.)
For another test, the system named is K562. Briefly: Antiproliferative activity against human K562 cells assessed as cell growth inhibition after 5 days by Celltiter-Glo luminescent assay. The following applies: K562, 120 h. It is filed as functional, cell-based. (In general: Cellular ATP, detected with luciferase, serves as a proxy for viable cell number.)
The target in test [5] is Histone-lysine N-methyltransferase SETD1B (Homo sapiens, UniProt Q9UPS6). Put plainly: Inhibition of SETD1B (unknown origin) using SAM as substrate preincubated for 15 mins followed by substrate addition and measured after 1 hr by Alphalisa assay.
Sequence of Histone-lysine N-methyltransferase SETD1B (Q9UPS6 whole entry, the tested form may be a part): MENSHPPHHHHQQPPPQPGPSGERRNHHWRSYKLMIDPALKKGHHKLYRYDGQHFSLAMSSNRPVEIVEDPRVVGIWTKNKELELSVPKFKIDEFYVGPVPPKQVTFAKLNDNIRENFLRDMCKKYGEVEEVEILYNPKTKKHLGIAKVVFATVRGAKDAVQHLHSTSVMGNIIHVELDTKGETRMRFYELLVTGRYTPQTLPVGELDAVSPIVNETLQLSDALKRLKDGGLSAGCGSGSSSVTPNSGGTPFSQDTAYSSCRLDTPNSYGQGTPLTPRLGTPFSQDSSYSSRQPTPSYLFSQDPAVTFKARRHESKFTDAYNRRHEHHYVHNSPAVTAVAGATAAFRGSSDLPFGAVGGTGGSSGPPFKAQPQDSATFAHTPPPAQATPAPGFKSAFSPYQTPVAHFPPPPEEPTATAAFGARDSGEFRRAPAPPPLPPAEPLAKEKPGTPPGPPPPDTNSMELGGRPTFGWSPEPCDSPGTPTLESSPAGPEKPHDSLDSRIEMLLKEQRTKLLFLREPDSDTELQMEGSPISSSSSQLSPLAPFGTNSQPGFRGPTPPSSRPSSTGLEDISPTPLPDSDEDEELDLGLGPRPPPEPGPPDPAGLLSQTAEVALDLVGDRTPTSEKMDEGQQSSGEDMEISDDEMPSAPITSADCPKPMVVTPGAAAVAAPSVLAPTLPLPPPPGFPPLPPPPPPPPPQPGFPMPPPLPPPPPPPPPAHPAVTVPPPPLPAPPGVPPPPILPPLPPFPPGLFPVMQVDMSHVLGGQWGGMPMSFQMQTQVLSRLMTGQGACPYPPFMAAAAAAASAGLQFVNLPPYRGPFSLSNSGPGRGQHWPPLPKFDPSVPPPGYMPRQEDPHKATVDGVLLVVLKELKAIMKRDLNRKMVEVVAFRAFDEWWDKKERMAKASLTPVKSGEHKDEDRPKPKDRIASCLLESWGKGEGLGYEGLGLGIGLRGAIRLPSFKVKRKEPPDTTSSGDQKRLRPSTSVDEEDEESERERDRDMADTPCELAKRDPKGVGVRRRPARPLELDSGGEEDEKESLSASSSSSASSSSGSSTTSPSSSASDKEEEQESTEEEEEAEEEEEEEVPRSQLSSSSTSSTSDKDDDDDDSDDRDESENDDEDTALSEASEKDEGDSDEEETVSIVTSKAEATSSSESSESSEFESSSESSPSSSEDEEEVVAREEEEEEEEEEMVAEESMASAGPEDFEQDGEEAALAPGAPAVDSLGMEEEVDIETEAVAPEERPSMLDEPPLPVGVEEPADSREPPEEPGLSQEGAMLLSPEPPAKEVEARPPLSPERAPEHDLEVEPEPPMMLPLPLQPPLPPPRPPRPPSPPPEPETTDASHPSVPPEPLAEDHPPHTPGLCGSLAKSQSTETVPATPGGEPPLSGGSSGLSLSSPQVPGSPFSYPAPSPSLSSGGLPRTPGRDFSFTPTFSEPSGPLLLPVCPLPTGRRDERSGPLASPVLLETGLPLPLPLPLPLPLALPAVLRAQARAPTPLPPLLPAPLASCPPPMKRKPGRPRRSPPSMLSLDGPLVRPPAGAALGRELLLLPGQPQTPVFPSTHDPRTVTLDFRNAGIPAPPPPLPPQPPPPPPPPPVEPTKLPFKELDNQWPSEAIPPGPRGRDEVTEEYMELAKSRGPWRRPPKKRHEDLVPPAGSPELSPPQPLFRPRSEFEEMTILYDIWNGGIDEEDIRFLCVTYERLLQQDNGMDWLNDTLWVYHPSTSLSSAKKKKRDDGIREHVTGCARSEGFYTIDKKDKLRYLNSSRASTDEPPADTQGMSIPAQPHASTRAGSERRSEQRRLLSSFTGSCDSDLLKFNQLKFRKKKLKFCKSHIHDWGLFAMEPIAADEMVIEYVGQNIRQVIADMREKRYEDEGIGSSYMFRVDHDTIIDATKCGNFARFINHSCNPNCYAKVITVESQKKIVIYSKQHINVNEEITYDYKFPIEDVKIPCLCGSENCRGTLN
The target in test [6] is T1, WD repeat-containing protein 5. Briefly: Binding affinity to recombinant full-length human N-terminal His6-tagged WDR5 (1 to 334 residues) expressed in Escherichia coli BL21 (DE3) by surface plasmon resonance analysis.
The target of test [7] is Histone-lysine N-methyltransferase 2D (Homo sapiens, UniProt O14686). Put plainly: Inhibition of MLL2 (unknown origin) using SAM as substrate preincubated for 15 mins followed by substrate addition and measured after 1 hr by Alphalisa assay.
Test [8] has as its target T2, Histone-lysine N-methyltransferase EHMT2 (Homo sapiens, UniProt Q96KQ7).
T2 sequence (Q96KQ7 whole entry): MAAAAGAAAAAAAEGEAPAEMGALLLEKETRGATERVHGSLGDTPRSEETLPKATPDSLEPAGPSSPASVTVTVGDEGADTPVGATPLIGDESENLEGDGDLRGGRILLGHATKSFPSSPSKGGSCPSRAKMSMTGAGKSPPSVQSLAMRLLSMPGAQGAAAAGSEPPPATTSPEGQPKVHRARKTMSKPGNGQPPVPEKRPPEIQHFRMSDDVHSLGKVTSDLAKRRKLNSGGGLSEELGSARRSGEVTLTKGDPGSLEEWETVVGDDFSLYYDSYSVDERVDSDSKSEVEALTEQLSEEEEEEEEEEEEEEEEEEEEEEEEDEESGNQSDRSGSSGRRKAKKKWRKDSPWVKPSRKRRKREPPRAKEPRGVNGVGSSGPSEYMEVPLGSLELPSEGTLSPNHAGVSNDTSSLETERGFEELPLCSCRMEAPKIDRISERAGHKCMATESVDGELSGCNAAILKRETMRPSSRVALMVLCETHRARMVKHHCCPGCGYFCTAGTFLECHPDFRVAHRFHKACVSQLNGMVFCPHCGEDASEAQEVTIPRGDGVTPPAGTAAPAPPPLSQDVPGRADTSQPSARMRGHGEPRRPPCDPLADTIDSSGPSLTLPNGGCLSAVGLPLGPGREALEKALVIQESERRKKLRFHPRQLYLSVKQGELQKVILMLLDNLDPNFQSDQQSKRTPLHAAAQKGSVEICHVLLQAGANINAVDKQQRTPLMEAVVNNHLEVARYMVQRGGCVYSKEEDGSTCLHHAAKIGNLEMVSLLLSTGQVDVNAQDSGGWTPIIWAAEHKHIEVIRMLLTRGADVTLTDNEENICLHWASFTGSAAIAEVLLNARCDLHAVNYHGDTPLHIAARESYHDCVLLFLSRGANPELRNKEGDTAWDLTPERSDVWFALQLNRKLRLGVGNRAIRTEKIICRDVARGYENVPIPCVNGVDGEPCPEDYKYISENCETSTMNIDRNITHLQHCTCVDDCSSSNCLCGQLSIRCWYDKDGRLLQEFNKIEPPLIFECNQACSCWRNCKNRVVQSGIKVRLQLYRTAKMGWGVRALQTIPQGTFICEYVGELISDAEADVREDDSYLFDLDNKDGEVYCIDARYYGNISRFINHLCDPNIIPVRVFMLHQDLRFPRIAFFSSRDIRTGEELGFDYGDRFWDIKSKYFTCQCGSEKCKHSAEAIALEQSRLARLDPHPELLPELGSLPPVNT
Put plainly: Inhibition of G9a (unknown origin) using SAM as substrate preincubated for 15 mins followed by substrate addition and measured after 1 hr by Alphalisa assay.

The subject of another test is MV4-11. Put plainly: Antiproliferative activity against human MV4-11 cells harboring MLL-AF4 fusion protein assessed as cell growth inhibition after 5 days by Celltiter-Glo luminescent assay. Type of test: functional, cell-based. Particulars: MV4-11, 120 h.

A word on the IC50: it is the concentration needed to halve the response being measured. For orientation: Ki means the equilibrium dissociation constant of an inhibitor or competing ligand from its target. For orientation: Kd means the constant that tells how readily two partners part at equilibrium.

Sequence of Protein arginine N-methyltransferase 1 (Q99873 whole entry): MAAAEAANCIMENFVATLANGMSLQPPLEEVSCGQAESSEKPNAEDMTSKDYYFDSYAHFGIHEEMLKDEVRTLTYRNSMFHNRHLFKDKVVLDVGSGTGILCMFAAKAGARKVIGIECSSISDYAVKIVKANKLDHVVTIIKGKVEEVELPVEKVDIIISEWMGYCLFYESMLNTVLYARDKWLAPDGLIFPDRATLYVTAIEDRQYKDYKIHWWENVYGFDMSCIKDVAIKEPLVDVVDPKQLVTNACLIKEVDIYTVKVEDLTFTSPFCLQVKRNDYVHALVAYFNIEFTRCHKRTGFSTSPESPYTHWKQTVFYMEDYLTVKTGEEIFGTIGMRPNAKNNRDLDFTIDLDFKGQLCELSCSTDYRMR

On to `CCCCOc1ccc(S(=O)(=O)Nc2ccccc2C(=O)O)cc1C`, for which, in test [1], the IC50 was 22 µM.

For the compound `CCC(CC)(NC(=O)C(C)C)C(=O)N[C@@H](CCCNC(=N)N)C(=O)NC1(C(=O)NC(c2ccc(Cl)cc2)c2ccc(Cl)cc2)CCCC1`, in [2], the IC50 was found to be 0.0045 µM. This compound also gave a Ki in test [3] of less than 0.001 µM.

As for `CCCCOc1ccc(S(=O)(=O)Nc2ccc(C(=O)O)cc2)cc1C`, the IC50 in test [4] was greater than 100 µM; in the test with K562, 72.1 µM; in [5], greater than 100 µM; in test [7], greater than 100 µM; in test [8], greater than 100 µM; with MV4-11, 31.2 µM. For the same compound, in test [1], the IC50 is 13 µM. Moreover, the Kd in [6] came out at 15.8 µM.

As for `O=C(O)c1cc(NS(=O)(=O)c2ccc(Cl)cc2)cc(C(=O)O)c1`, the IC50 in test [1] was determined as 22 µM.

Regarding `Cc1c(Cl)ccc(S(=O)(=O)Nc2cccc(C(=O)O)c2)c1Cl`, the IC50 in test [1] was in the range of 13 to 13.1 µM.

On to `CCCCOc1ccc(S(=O)(=O)Nc2cccc(C(=O)O)c2)cc1C`, for which the IC50 in test [1] stood at 30 µM.

On to `COc1ccc(S(=O)(=O)Nc2ccc(C(=O)O)cc2)cc1C(C)(C)C`, for which the IC50 in test [1] is 48 µM.
